The record followed here is patent publication US20240122926A1, “APELIN RECEPTOR MODULATORS FOR TREATING MUSCLE CONDITIONS” (priority 2022, published 2024).

Holding throughout (format): in vivo, mouse
The test system of assay [1] is aged (18-month-old) mice. The assay is described as follows: Cardiotoxin (CTX)-induced muscle injury, transcript levels, aged mice. To be noted: for MyoD transcript level: 3 and 7 days. The method, then:
(§1) Mice were i.p injected with buprenorphine (Centravet, 0.1 mg/kg) 30 minutes before injury and the day after. The day of the injury, mice were anesthetized with isoflurane inhalation and hindlimbs were shaved. Then, 10 μM of cardiotoxin (CTX, Latoxan, #L8102) was injected through two injections of 25 μl into the left tibialis muscle and two injections of 50 μl into the left gastrocnemius muscle, using a 22-gauge needle (Hamilton). Mice were euthanized 3 and 7 days after injury by cervical dislocation, muscles (PBS- and CTX-injected) were cut in two parts, one being snap frozen into liquid nitrogen for total RNA extraction and the other part being embedded into OCT, frozen in isopentane cooled with liquid nitrogen for histological analysis.

Assay [2] deals with young (3-month-old) mice. The assay is described as follows: Cardiotoxin (CTX)-induced muscle injury, transcript levels, young mice. The method, then: as §1
In assay [3] the test system is aged (18-month-old) mice. Briefly: Cardiotoxin (CTX)-induced muscle injury, histology of tibialis (cross-sectional area, centrally nucleated fibers). As to the method: Impairment of muscle regeneration can contribute to age-related muscle weakness. This is particularly true in aged individuals who engage in physical activity. Exercise-induced muscle hypertrophy is linked to the capacity of muscle stem cells to be activated and promote regeneration.
Mice were i.p injected with buprenorphine (Centravet, 0.1 mg/kg) 30 minutes before injury and the day after. The day of the injury, mice were anesthetized with isoflurane inhalation and hindlimbs were shaved. […]
Mouse muscle samples were dissected and cryopreserved in OCT frozen in liquid nitrogen cooled isopentane. […] Images were captured using a digital camera (Nanozoomer, Hamamatsu) attached to a motorized fluorescence microscope or using Olympus VS120 Virtual Microscopy Slide Scanning System. The area covered by eMHC-positive fibers and degenerated area was determined manually across the entire sections using the VS-ASW FL software measurement tools. The size of myofibers with central nuclei was calculated from laminin/DAPI staining on all fibers of the section and area determination were performed across the entire sections, using an automated image processing algorithm developed internally using the MetaXpress software (Molecular Devices).

The mark [4] stands for this setting: tibialis anterior, 7 days, both BGE-105 dosages.

Consider `CSCC[C@H](NC(=O)[C@@H]1CCCN1C(=O)CNC(=O)[C@H](CCCCN)NC(=O)[C@H](Cc1c[nH]cn1)NC(=O)[C@H](CO)NC(=O)[C@H](CC(C)C)NC(=O)[C@H](CCCNC(=N)N)NC(=O)[C@@H]1CCCN1C(=O)[C@H](CCCNC(=N)N)NC(=O)[C@@H]1CCC(=O)N1)C(=O)N1CCC[C@H]1C(=O)N[C@@H](Cc1ccccc1)C(=O)O` [Pyr^1-Apelin-13], for which the MyoD transcript level result in assay [1] (gastrocnemius, both BGE-105 dosages) is recorded as “significant increase”; in assay [1] (tibialis anterior, both BGE-105 dosages), “significant increase”; in assay [2] (gastrocnemius, 3 or 7 days) it was “no change”; in assay [2] (tibialis, 3 or 7 days) it was “no significant increase”. Besides, the Myf5 transcript level entry is recorded as “no significant change” in assay [1] (gastrocnemius, 3 or 7 days); “no change” in assay [2] (gastrocnemius, 3 or 7 days); “no difference” in assay [2] (tibialis, 3 or 7 days). Also, the MyoG transcript level result in assay [1] (gastrocnemius, 3 or 7 days) is recorded as “no significant change”; in assay [1] (setting [4]) it was “significant increase”; in assay [2] (gastrocnemius, 3 or 7 days), “no change”; in assay [2] (tibialis, 3 or 7 days) it was “no difference”. Besides, the Pax7 transcript level entry in assay [1] (gastrocnemius, 3 or 7 days) is recorded as “no significant change”; in assay [1] (tibialis anterior, 7 days, BGE-105 50 and 200 mg/kg/day P.O., apelin 0.5 mol/kg/day injection), “significant increase”; in assay [2] (gastrocnemius, 3 or 7 days), “no change”; in assay [2] (tibialis, 3 or 7 days), “no change”. For the same molecule, the MyHC8 transcript level result in assay [1] (gastrocnemius, any time point) is reported as “does not show a change”; in assay [2] (gastrocnemius, 3 days, both BGE-105 dosages), “non-significant increase”; in assay [2] (tibialis, 3 or 7 days), “no significant change”. Moreover, the MyHC3 transcript level entry is on record as “significant increase” in assay [1] (setting [4]) and “no significant change” in assay [2] (tibialis, 3 or 7 days). The “cross-sectional area of the tibialis” value in assay [3] (3 and 7 days post cardiotoxin, BA1 (50 mg/kg/d) and BA2 (200 mg/kg/d)) is reported as “significant increase”. In addition, in assay [3] (18-month-old mice after cardiotoxin, significant at the higher BGE-105 dose (200 mg/kg/day)), the “amount of centrally nucleated myofibers (CNM)” value is recorded as “significant increase”.
